# Laboratory results taken from PubChem BioAssay (NCI).
#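 Five compound concentrations were applied to cells in 96-well plates for 48 hours; endpoints were derived by simple linear interpolation of the resulting dose-response curve. TGI marks complete inhibition of growth.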 Where a SMILES comes first, the peptide text is derived from it. [ ]: non-standard residue; d: D form. The star is where a group is joined. Phe(2-OMe) = COc1ccccc1C[CH](N)C(=O)O; Cbz = O=C(OCc1ccccc1)*; OBn = c1ccc(CO*)cc1
# Key:
# Assay in all cases: NCI anticancer screen, dose series, 48 h
# [1] = tested on: HOP-92 NSCLC
# [2] = tested on: UO-31 renal
# [3] = tested on: TK-10 renal
# [4] = tested on: OVCAR-8 ovarian
# [5] = tested on: MALME-3M melanoma
# [6] = tested on: ACHN renal
# [7] = tested on: SW-620 colon
# [8] = tested on: SNB-19 CNS
# [9] = tested on: IGROV1 ovarian
# [10] = tested on: NCI-H226 lung
# [11] = tested on: RPMI-8226 leukemia
# [12] = tested on: RXF 393 renal
# [13] = tested on: HS 578T breast
# [14] = tested on: COLO 205 colon
# [15] = tested on: SNB-75 CNS
# [16] = tested on: MDA-N
# [17] = tested on: KM12 colon
# [18] = tested on: SK-MEL-2 melanoma
# [19] = tested on: K-562 leukemia
# [20] = tested on: BT-549 breast
# [21] = tested on: HCC-2998 colon
# [22] = tested on: M14 melanoma
# [23] = tested on: HCT-116 colon
# [24] = tested on: SK-MEL-5 melanoma
# [25] = tested on: HT29 colon
# [26] = tested on: CCRF-CEM leukemia
# [27] = tested on: UACC-257 melanoma
# [28] = tested on: SK-MEL-28 melanoma
# [29] = tested on: U251 CNS
# [30] = tested on: OVCAR-5 ovarian
# [31] = tested on: PC-3 prostate
# [32] = tested on: HOP-62 NSCLC
# [33] = tested on: NCI-H23 lung
# [34] = tested on: 786-0 renal
# [35] = tested on: UACC-62 melanoma
# [36] = tested on: A498 renal
# [37] = tested on: MOLT-4 leukemia
# [38] = tested on: A549 NSCLC
# [39] = tested on: HL-60(TB) leukemia
# [40] = tested on: NCI-H460 lung
# [41] = tested on: SR leukemia
# [42] = tested on: MCF7 breast
# [43] = tested on: EKVX NSCLC
# [44] = tested on: SF-539 CNS
# [45] = tested on: OVCAR-3 ovarian
# [46] = tested on: SF-295 CNS
# [47] = tested on: MDA-MB-435
# [48] = tested on: NCI-H522 lung
# [49] = tested on: DU-145 prostate
# [50] = tested on: NCI/ADR-RES ovarian
# [51] = tested on: CAKI-1 renal
# [52] = tested on: SK-OV-3 ovarian
# [53] = tested on: MDA-MB-231 breast
# [54] = tested on: LOX IMVI melanoma
# [55] = tested on: SN12C renal
# [56] = tested on: SF-268 CNS
# [57] = tested on: HCT-15 colon
# [58] = tested on: OVCAR-4 ovarian
smiles,measurement,setting,value
COC(=O)C(Cc1ccccc1OC)NC(=O)C(CC(=O)OCc1ccccc1)NC(=O)OCc1ccccc1 (stereo not drawn) (Cbz-Asp(OBn)-[Phe(2-OMe)]-OMe; configuration not given here),TGI,[1],> 100 µM
same,TGI,[2],> 100 µM
same,TGI,[3],> 100 µM
same,TGI,[4],> 100 µM
same,TGI,[5],> 100 µM
same,TGI,[6],> 100 µM
same,TGI,[7],> 100 µM
same,TGI,[8],> 100 µM
same,TGI,[9],> 100 µM
same,TGI,[10],> 100 µM
same,TGI,[11],> 100 µM
same,TGI,[12],> 100 µM
same,TGI,[13],> 100 µM
same,TGI,[14],> 100 µM
same,TGI,[15],> 100 µM
same,TGI,[16],> 100 µM
same,TGI,[17],> 100 µM
same,TGI,[18],> 100 µM
same,TGI,[19],> 100 µM
same,TGI,[20],> 100 µM
same,TGI,[21],> 100 µM
same,TGI,[22],> 100 µM
same,TGI,[23],> 100 µM
same,TGI,[24],> 100 µM
same,TGI,[25],> 100 µM
same,TGI,[26],> 100 µM
same,TGI,[27],> 100 µM
same,TGI,[28],> 100 µM
same,TGI,[29],> 100 µM
same,TGI,[30],> 100 µM
same,TGI,[31],> 100 µM
same,TGI,[32],> 100 µM
same,TGI,[33],> 100 µM
same,TGI,[34],> 100 µM
same,TGI,[35],> 100 µM
same,TGI,[36],> 100 µM
same,TGI,[37],> 100 µM
same,TGI,[38],> 100 µM
same,TGI,[39],> 100 µM
same,TGI,[40],> 100 µM
same,TGI,[41],84.6 µM
same,TGI,[42],> 100 µM
same,TGI,[43],> 100 µM
O=Cc1cn(CCCCCn2cc(C=O)c3ccccc32)c2ccccc12,TGI,[1],> 100 µM
same,TGI,[2],> 100 µM
same,TGI,[3],> 100 µM
same,TGI,[4],> 100 µM
same,TGI,[5],> 100 µM
same,TGI,[6],> 100 µM
same,TGI,[44],> 100 µM
same,TGI,[7],> 100 µM
same,TGI,[8],> 100 µM
same,TGI,[9],> 100 µM
same,TGI,[10],> 100 µM
same,TGI,[11],> 100 µM
same,TGI,[45],> 100 µM
same,TGI,[12],> 100 µM
same,TGI,[13],62.2 µM
same,TGI,[46],> 100 µM
same,TGI,[14],> 100 µM
same,TGI,[47],> 100 µM
same,TGI,[48],> 100 µM
same,TGI,[16],> 100 µM
same,TGI,[18],> 100 µM
same,TGI,[20],> 100 µM
same,TGI,[22],> 100 µM
same,TGI,[23],> 100 µM
same,TGI,[49],> 100 µM
same,TGI,[24],> 100 µM
same,TGI,[25],> 100 µM
same,TGI,[26],> 100 µM
same,TGI,[27],> 100 µM
same,TGI,[50],> 100 µM
same,TGI,[29],> 100 µM
same,TGI,[30],6.5 µM
same,TGI,[31],> 100 µM
same,TGI,[51],> 100 µM
same,TGI,[52],> 100 µM
same,TGI,[53],> 100 µM
same,TGI,[33],> 100 µM
same,TGI,[34],> 100 µM
same,TGI,[35],> 100 µM
same,TGI,[54],> 100 µM
same,TGI,[37],> 100 µM
same,TGI,[38],> 100 µM
same,TGI,[39],> 100 µM
same,TGI,[55],> 100 µM
same,TGI,[56],72.6 µM
same,TGI,[40],11.4 µM
same,TGI,[41],> 100 µM
same,TGI,[57],> 100 µM
same,TGI,[43],> 100 µM
CSc1cc(Cl)c(C)cc1S(=O)(=O)NC(=O)Nc1ccc(Cl)cc1,TGI,[1],45.5 µM
same,TGI,[2],31.5 µM
same,TGI,[3],81.5 µM
same,TGI,[4],> 100 µM
same,TGI,[5],85.1 µM
same,TGI,[6],> 100 µM
same,TGI,[7],92.7 µM
same,TGI,[8],92 µM
same,TGI,[9],> 100 µM
same,TGI,[10],45.1 µM
same,TGI,[11],> 100 µM
same,TGI,[45],74 µM
same,TGI,[12],51.7 µM
same,TGI,[13],> 100 µM
same,TGI,[46],> 100 µM
same,TGI,[14],29.8 µM
same,TGI,[47],88 µM
same,TGI,[15],62.1 µM
same,TGI,[48],41.4 µM
same,TGI,[16],> 100 µM
same,TGI,[17],80.8 µM
same,TGI,[18],49 µM
same,TGI,[19],> 100 µM
same,TGI,[20],> 100 µM
same,TGI,[21],38.4 µM
same,TGI,[22],> 100 µM
same,TGI,[23],35.7 µM
same,TGI,[24],64.9 µM
same,TGI,[25],> 100 µM
same,TGI,[26],39.2 µM
same,TGI,[27],79.8 µM
same,TGI,[28],> 100 µM
same,TGI,[50],97.1 µM
same,TGI,[29],> 100 µM
same,TGI,[30],> 100 µM
same,TGI,[31],> 100 µM
same,TGI,[32],63.2 µM
same,TGI,[51],> 100 µM
same,TGI,[52],> 100 µM
same,TGI,[53],> 100 µM
same,TGI,[33],40.4 µM
same,TGI,[34],> 100 µM
same,TGI,[35],14.8 µM
same,TGI,[36],> 100 µM
same,TGI,[54],52.5 µM
same,TGI,[37],40.9 µM
same,TGI,[38],> 100 µM
same,TGI,[39],28 µM
same,TGI,[55],> 100 µM
same,TGI,[56],> 100 µM
same,TGI,[58],> 100 µM
same,TGI,[40],> 100 µM
same,TGI,[41],> 100 µM
same,TGI,[42],> 100 µM
same,TGI,[57],84.1 µM
same,TGI,[43],87.8 µM
FC(F)(F)c1ccc(C2=N/S(c3ccccc3)=N\C(c3ccc(C(F)(F)F)cc3)=N/S(c3ccccc3)=N\2)cc1 (stereo not drawn),TGI,[1],> 100 µM
same,TGI,[2],> 100 µM
same,TGI,[3],> 100 µM
same,TGI,[4],> 100 µM
same,TGI,[5],> 100 µM
same,TGI,[6],> 100 µM
same,TGI,[44],> 100 µM
same,TGI,[7],> 100 µM
same,TGI,[8],> 100 µM
same,TGI,[9],> 100 µM
same,TGI,[11],> 100 µM
same,TGI,[45],> 100 µM
same,TGI,[12],> 100 µM
same,TGI,[13],> 100 µM
same,TGI,[46],> 100 µM
same,TGI,[14],> 100 µM
same,TGI,[47],> 100 µM
same,TGI,[15],> 100 µM
same,TGI,[48],> 100 µM
same,TGI,[16],> 100 µM
same,TGI,[17],> 100 µM
same,TGI,[18],> 100 µM
same,TGI,[19],> 100 µM
same,TGI,[20],> 100 µM
same,TGI,[21],> 100 µM
same,TGI,[22],> 100 µM
same,TGI,[23],> 100 µM
same,TGI,[49],> 100 µM
same,TGI,[24],> 100 µM
same,TGI,[25],> 100 µM
same,TGI,[26],> 100 µM
same,TGI,[27],> 100 µM
same,TGI,[28],> 100 µM
same,TGI,[50],> 100 µM
same,TGI,[29],> 100 µM
same,TGI,[30],> 100 µM
same,TGI,[31],> 100 µM
same,TGI,[51],> 100 µM
same,TGI,[52],> 100 µM
same,TGI,[53],> 100 µM
same,TGI,[33],> 100 µM
same,TGI,[34],> 100 µM
same,TGI,[35],> 100 µM
same,TGI,[54],> 100 µM
same,TGI,[37],> 100 µM
same,TGI,[38],> 100 µM
same,TGI,[55],> 100 µM
same,TGI,[56],> 100 µM
same,TGI,[58],> 100 µM
same,TGI,[40],> 100 µM
same,TGI,[41],> 100 µM
same,TGI,[42],> 100 µM
same,TGI,[57],> 100 µM
same,TGI,[43],> 100 µM
O=C1C(=C2SC(c3ccccc3)(c3ccccc3)c3ccccc32)C(=O)c2ccccc21,TGI,[1],> 100 µM
same,TGI,[2],> 100 µM
same,TGI,[3],> 100 µM
same,TGI,[4],> 100 µM
same,TGI,[5],> 100 µM
same,TGI,[6],> 100 µM
same,TGI,[44],> 100 µM
same,TGI,[7],> 100 µM
same,TGI,[8],> 100 µM
same,TGI,[9],> 100 µM
same,TGI,[10],> 100 µM
same,TGI,[11],> 100 µM
same,TGI,[45],> 100 µM
same,TGI,[12],> 100 µM
same,TGI,[13],> 100 µM
same,TGI,[46],> 100 µM
same,TGI,[14],> 100 µM
same,TGI,[47],> 100 µM
same,TGI,[15],> 100 µM
same,TGI,[48],> 100 µM
same,TGI,[16],> 100 µM
same,TGI,[17],> 100 µM
same,TGI,[19],> 100 µM
same,TGI,[20],> 100 µM
same,TGI,[21],> 100 µM
same,TGI,[22],> 100 µM
same,TGI,[23],> 100 µM
same,TGI,[49],> 100 µM
same,TGI,[24],> 100 µM
same,TGI,[25],> 100 µM
same,TGI,[26],> 100 µM
same,TGI,[27],> 100 µM
same,TGI,[28],> 100 µM
same,TGI,[50],> 100 µM
same,TGI,[29],> 100 µM
same,TGI,[30],> 100 µM
same,TGI,[31],> 100 µM
same,TGI,[32],> 100 µM
same,TGI,[51],> 100 µM
same,TGI,[52],> 100 µM
same,TGI,[53],> 100 µM
same,TGI,[33],> 100 µM
same,TGI,[34],> 100 µM
same,TGI,[35],> 100 µM
same,TGI,[36],> 100 µM
same,TGI,[54],> 100 µM
same,TGI,[37],> 100 µM
same,TGI,[38],> 100 µM
same,TGI,[55],> 100 µM
same,TGI,[56],> 100 µM
same,TGI,[58],> 100 µM
same,TGI,[40],> 100 µM
same,TGI,[41],> 100 µM
same,TGI,[42],> 100 µM
same,TGI,[57],> 100 µM
same,TGI,[43],> 100 µM
